Tests used:
Format in all cases: in vivo, mouse
[1] = tested on: ASCs specific for chromatin; assay: Anti-chromatin antibody secreting B-cell Elispot, NZM spleen; details: NZM mice
Procedure: (§1) Age mated, female, NZM or NZW/LacJ, mice were matured for the study of lupus nephritis for a total of 7 months or 210 days at which time urine was collected for proteinuria detection. Mice with 0.5-1.0 mg/ml of urine protein as determined by an optical density-based total protein precipitation assay and cross-checked for 30-300 mg/dl of protein as determined by a stick assay were considered proteinuria positive and selected for study entry. Groups were normalized to contain a Gaussian distribution of proteinuria positive animals (i.e., ⅓ low proteinuria, ⅓ medium, ⅓ high) then randomized between groups before ear marking and taking baseline measures including urine and serum collections. A total of five mice from the total population were randomly selected for baseline kidney histology evaluation. Treatments and tests for each group are as described in FIG. 12. Briefly, with a minimum of 10 mice per group, COMPOUND A was administered at 100 mg/kg or 55 mg/kg, both twice a day and orally. […] Vehicle included 3% DMSO, 10% Solutol and 87% PBS. […] End-stage lupus nephritis was evaluated by histopathology and scored by a board certified pathologist for the assessment of total renal damage in diseased animals using the scoring method described by Smith et al (Smith, Dong et al. 2007). […] Day-98 or “end of treatment/study” represents 310 days of age for the NZM animals.

[2] = tested on: c-telopeptide collagen type I cross-linker; CTx; assay: Osteoclast activity: serum bone resorption biomarker CTx in NZM mice
Description: Vehicle included 3% DMSO, 10% Solutol and 87% PBS.

pSTAT3 = assay: Pharmacodynamic kidney pSTAT3 (JAK2 inhibition marker) in NZM mice; details: vs vehicle or CTX, p<0.01
Procedure: as §1

MRL/lpr mice = assay: Renal histopathology kidney IC-GN scoring in MRL/lpr mice; details: for Glomerular Cellularity / Glomerular Necrosis / Glomerulosclerosis / Interstitial Fibrosis / Interstitial Inflitration / Tubular Atrophy / Vasculitis: MRL/lpr kidney score (grade 0-5), mean
Procedure: Kidney stains used for histological analyses included hematoxylin and eosin (H&E), Periodic Acid Schiff (PAS) and Trichrome stains (Wistar Institute, Philadelphia, Pa.). All 3 stained sections were used by the pathologist for scoring purposes. All histological scoring was performed blinded and by an independent board certified veterinary medical pathologist (Julie […]; University of Pennsylvania). Multiple stains were used to determine score values. Images in FIGS. 8, 19 and 20 show worst affected area of section selected blindly by the pathologist. Kidney IC-GN Scoring Method (Smith, Dong et al. 2007): 1. Glomerular cellularity-Score 1-5: Null, low, moderate, high, severe […] Glomerular necrosis-Score 1-5: Null, low, moderate, high, severe […] Glomerulosclerosis-Score 1-5: Null, low, moderate, high, severe […] Null, low, moderate, high, severe 5. […] Null, low, moderate, high, severe 6. […] Null, low, moderate, high, severe 7. […] Null, low, moderate, high, severe Specific Pathologist Definitions: • Necrosis was defined by the presence of nuclear debris/pyknosis within the glomerular tuft indicative of “necrosis.” In many samples, this was a very mild, rare finding within only a very few segments of the glomerular tuft. Also considered effacement of the glomerular tuft by PAS positive, Trichrome negative material necrosis. • Glomerular sclerosis was defined by increased fibroplasia or fibrosis within the glomerular tuft or capsule. […] Most of the vascular changes were mild and could be considered “arteriosclerosis” characterized by proliferation of the smooth muscle cells, and hyalinization of the extracellular matrix. This change may reflect hypertension secondary to glomerular pathology. In very few animals was there overt “vasculitis.” Most inflammatory changes were within the walls of the blood vessels, with little to no damage to the endothelium, and no overt hemorrhage/fibrin leakage. Many also have perivascular rims of fibroblasts. […] Mice were tracked on an individual basis.

plasma cells = assay: BrdU short-lived / long-lived plasma cells in spleen and bone marrow of NZM mice; details: 15 week old NZM mice, two weeks
Procedure: Twenty-four hours before the end of the study each mouse was injected i.p. with 2 mg of thymidine analog, bromodeoxyuridine (BrdU). BrdU (Cat#550891) and an anti-BrdU-FITC staining kit (Cat#559619) were obtained from BD Biosciences (Franklin Lakes, N.J.). Twenty-four hours after BrdU injection spleen and bone marrow were individually processed to isolate leukocytes for flow staining. Cells were surface stained with anti-CD19-Cyc, anti-CD38-PE and anti-CD138-APC (all obtained from eBioscience in San Diego, Calif.) as well as anti-BrdU-FITC (from the BrdU kit). Analysis included gating on live SSC/FSC populations, CD19-negative, CD38-positive and gating on CD138-positive, BrdU-negative (non-cycling, long-lived plasma cells, region R2) or BrdU-positive (cycling, short-lived plasma cells, region R1) as shown in FIG. 42. All samples were analyzed using an Accuri C6 Flow Cytometer. Complete media (R10) was used for all experiments involving the ex vivo culture of splenocytes for all Elispot experiments. […] The Figures depict spleen short-lived plasma cells (FIG. 38), bone marrow isolated short-lived plasma cells (FIG. 39), spleen long-lived plasma cells (FIG. 40), and bone marrow isolated long-lived plasma cells (FIG. 41). Also depicted are representative dot plots providing gating examples and short-lived plasma cells, R1, and long-lived plasma cells, R2, gates (FIG. 42). Graphs show mean±SEM, statistical test included two-tailed, Mann-Whitney t-test, *p<0.05 was considered significant. All events shown were originally size gated on live cells, graphs show CD19-negative, CD38/CD138-double positive populations that had either incorporated BrdU (cycling, thus short-lived plasma cells, see region R1) or not incorporated BrdU (non-cycling, thus long-lived plasma cells, see region R2).

[3] = MRL/lpr mice, 100 mg/kg, p<0.01

With `CN1CCN(c2cccc(Nc3nc4c(-c5ccc(S(C)(=O)=O)cc5)cccn4n3)c2)CC1` [COMPOUND A, [8-(4-methanesulfonyl-phenyl)-[1,2,4]triazolo[1,5-a]pyridin-2-yl]-[3-(4-methyl-piperazin-1-yl)-phenyl]-amine] the “ASCs specific for chromatin, decrease” value ([1]; COMPOUND A 55 mg/kg) was 97.4%, the “ASCs specific for chromatin, decrease” value ([1]; COMPOUND A 100 mg/kg) was 100% and the “serum CTx decrease vs. vehicle” value ([2]; 55 mg/kg) was 37.8%. The “serum CTx decrease vs. vehicle” value ([2]; 100 mg/kg) was 46.7%, the “levels of pSTAT3 in the kidneys” value (pSTAT3) was “significantly lower” and the “Glomerular Cellularity” value (MRL/lpr mice; COMPOUND A 30 mg/kg) was 2.60. The “Glomerular Necrosis” value (MRL/lpr mice; COMPOUND A 30 mg/kg) was 1.80, the Glomerulosclerosis (MRL/lpr mice; COMPOUND A 30 mg/kg) was 1.60 and the “Interstitial Fibrosis” value (MRL/lpr mice; COMPOUND A 30 mg/kg) was 1.60. The “Interstitial Inflitration” value (MRL/lpr mice; COMPOUND A 30 mg/kg) was 2.20, the “Tubular Atrophy” value (MRL/lpr mice; COMPOUND A 30 mg/kg) was 1.20 and the Vasculitis (MRL/lpr mice; COMPOUND A 30 mg/kg) was 1.80. For the same compound, the “Glomerular Cellularity” value (MRL/lpr mice; COMPOUND A 55 mg/kg) was 3.20, the “Glomerular Necrosis” value (MRL/lpr mice; COMPOUND A 55 mg/kg) was 1.80 and the Glomerulosclerosis (MRL/lpr mice; COMPOUND A 55 mg/kg) was 2.00. The “Interstitial Fibrosis” value (MRL/lpr mice; COMPOUND A 55 mg/kg) was 1.20, the “Interstitial Inflitration” value (MRL/lpr mice; COMPOUND A 55 mg/kg) was 2.00 and the “Tubular Atrophy” value (MRL/lpr mice; COMPOUND A 55 mg/kg) was 2.20. The Vasculitis (MRL/lpr mice; COMPOUND A 55 mg/kg) was 2.00, the “Glomerular Cellularity” value (MRL/lpr mice; COMPOUND A 100 mg/kg) was 2.40 and the “Glomerular Necrosis” value (MRL/lpr mice; COMPOUND A 100 mg/kg) was 1.8. The Glomerulosclerosis (MRL/lpr mice; COMPOUND A 100 mg/kg) was 2.20, the “Interstitial Fibrosis” value (MRL/lpr mice; COMPOUND A 100 mg/kg) was 1.40 and the “Interstitial Inflitration” value (MRL/lpr mice; COMPOUND A 100 mg/kg) was 1.80. For the same compound, the “Tubular Atrophy” value (MRL/lpr mice; COMPOUND A 100 mg/kg) was 1.40, the Vasculitis (MRL/lpr mice; COMPOUND A 100 mg/kg) was 1.40 and the “interstitial infiltration decrease vs vehicle” value (MRL/lpr mice; MRL/lpr mice, 55 mg/kg, p<0.05) was 33.3%. For the same compound, the “glomerular cellularity decrease vs vehicle” value (MRL/lpr mice; [3]) was 33.3%, the “interstitial infiltration decrease vs vehicle” value (MRL/lpr mice; [3]) was 40% and the “vasculitis decrease vs vehicle” value (MRL/lpr mice; [3]) was 46.1%. For the same compound, the “enlarged glomeruli and leukocytic infiltrations in renal sections” value (MRL/lpr mice; MRL/lpr mice, COMPOUND A treated animals at EOS, FIG. 8) was “absent”, the “cellular infiltrations/glomerulonephritis and glomerular size in H&E stained renal sections” value (MRL/lpr mice; MRL/lpr mice, compared to dexamethasone and vehicle groups, FIG. 8) was “decreases in both cellular infiltrations/glomerulonephritis and glomerular size” and the “short lived plasma cells in the bone marrow” value (plasma cells; 100 mg/kg orally b.i.d., FIG. 39) was “impacted”. The “long lived plasma cells in the bone marrow” value (plasma cells; 100 mg/kg orally b.i.d., FIG. 41) was “impacted” and the “long lived plasma cells in the spleen” value (plasma cells; all three doses (100, 55, 30 mg/kg) orally b.i.d., FIG. 40) was “impacted”.

`O=P1(N(CCCl)CCCl)NCCCO1` (stereo not shown) [CTX, cyclophosphamide, reference compound] was tested, and the “ASCs specific for chromatin, decrease” value ([1]; CTX 50 mg/kg once weekly ip) was 100%.

`C[C@@H]1C[C@H]2[C@@H]3CCC4=CC(=O)C=C[C@]4(C)[C@@]3(F)[C@@H](O)C[C@]2(C)[C@@]1(O)C(=O)CO` [Dex, dexamethasone, reference compound] was tested, and the “Glomerular Cellularity” value (MRL/lpr mice; Dex 1.5 mg/kg) was 3.00, the “Glomerular Necrosis” value (MRL/lpr mice; Dex 1.5 mg/kg) was 2.00 and the Glomerulosclerosis (MRL/lpr mice; Dex 1.5 mg/kg) was 2.00. For the same compound, the “Interstitial Fibrosis” value (MRL/lpr mice; Dex 1.5 mg/kg) was 1.20, the “Interstitial Inflitration” value (MRL/lpr mice; Dex 1.5 mg/kg) was 1.60 and the “Tubular Atrophy” value (MRL/lpr mice; Dex 1.5 mg/kg) was 1.20. The Vasculitis (MRL/lpr mice; Dex 1.5 mg/kg) was 1.40.
